Data on 1 compound can be found in patent EP1897937A1, “Method of culturing NPCs” (NeuroProgen GmbH Leipzig, priority 2006, dated 2008).

Test [1] has as its system hmNPCs. In words: Patch-clamp of voltage-gated potassium and sodium channels in differentiated cells. The format is cell-based, human. Particulars: 100 µM; differentiation for 3 weeks. As for the experimental part: Patch-clamp analyses of hmNPCs was carried out after in vitro differentiation for 3 weeks with or without 100 µM UTP at room temperature using an inverted microscope DMIL (Leica, Bensheim, Germany) and an EPC-9 amplifier (HEKA, Lambrecht, Germany). Recordings of voltage-gated potassium and sodium channels were obtained in the whole-cell voltage-clamp mode by stepwise depolarisations with increasing amplitudes from the holding potential of - 70mV to 50mV in steps of 10mV. Ligand-gated P2X-channels were investigated in the whole-cell voltage-clamp mode by rapid application of 300 µM ADP, ATP, and UTP with a SF-77B perfusion fast-step system (Warner Instruments Inc., Hamden, USA). Series resistance values were continuously measured during all recordings. The external bath solution contained (in mM): 142 NaCl, 1 CaCl2, 8 KCI, 6 MgCl2, 10 Glucose, and 10 HEPES (pH 7.4; 320 mOsm). Micropipettes were formed from thin-walled borosilicate glass (Science Products, Hofheim, Germany) with a Flaming Brown electrode puller P-97 (Sutter Instrument Co., Novato, USA) and a Micro Forge (Narishige, Tokio, Japan). […] Whole cell currents were low-pass filtered at 2-5 kHz, digitized at 10 kHz, and analyzed using PulseFit software (HEKA, Lambrecht, Germany) and Prism 4 (GraphPad Software Inc, San Diego, USA). Numerical data were expressed as mean ± SEM. […]

For test [2], the system named is hmNPCs. In words: Dopaminergic differentiation: TH protein expression by Western blot. The format is cell-based, human. As for the experimental part:
To determine long-term proliferation, hmNPCs were plated and expanded for 2 passages with or without addition of various agents (see below) to the custom expansion media containing the growth factors EGF and FGF2. Different fetal midbrain tissues were included in this study. At the end of the proliferation period, differentiation of hmNPCs was induced via replacement of expansion media with mitogen-free media containing 1% FCS, 5 µM forskoline (Sigma-Aldrich Chemie GmbH Munich, Germany), and 100 pg/ml IL-1β (Sigma). The differentiation and expansion media were supplemented with different drugs as appropriate. Prior to immunocytochemistry or protein extraction, hmNPCs were allowed to differentiate for 1 week. To determine short-term proliferation via Ki67 immunostaining, the cells were seeded into 24-well plates (70,000 cells/well) and left overnight to rest. P2 receptor agonists (ATP, UTP, ATP + UTP, ADP, ADPβS) were supplied daily for 5 consecutive days. Ki67/nestin double-positive cells were counted in 8 randomly selected fields of nucleotide-treated or untreated samples. For the assessment of MAPK phosphorylation the cells were kept free of mitogens for 2 d prior to addition of the MEK-inhibitor in expansion media. In addition, the MEK-inhibitor was added during the differentiation period 15 min before UTP administration.
UTP, UDP, ATP, ADP, ADPβS and suramin were purchased from Sigma (Sigma-Aldrich Chemie GmbH Munich, Germany). UTP and UDP were applied at different concentrations (1 µM, 10 µM, 100 µM), ATP at 100 µM, ADP at 100 µM, and ADPβS at100 µM. During expansion of the cells, the nucleotides were renewed once a week with every media change, unless otherwise stated. They were applied once at the beginning of the differentiation period. The P2 receptor antagonist suramin (10 µM) was added to expansion media 30 min prior to addition of UTP (100 µM). The stock solution of the MEK1/2 inhibitor U0126 (Promega Corporation, Mannheim, Germany) was prepared in dimethyl sulfoxide (DMSO) at a concentration of 10 mM. The stock solution was then diluted in 0.1 M PBS to obtain a concentration of 1 mM. MEK inhibitor (final concentration 10 µM) was added to mitogen-free expansion media, 15 min before UTP treatment (1 µM) of hmNPCs.
In order to prepare protein extracts, hmNPCs were collected, washed with ice-cold PBS and lysed in buffer [10 mM HEPES-KOH (pH 7.9), 10 mM KCI, 1.5 mM MgCl2, 0.1% NP-40], supplemented with protease inhibitor cocktail (Roche). After a brief centrifugation at 4°C/10 000×g, protein concentrations and protein yield from extracts were determined using the Bradford method (Bio-Rad, Hercules, CA, USA). To preserve the phosphorylation state of proteins, extracts for the MAPK experiment were obtained using the PhosphoSafe™ extraction reagent containing phophatase inhibitors (Novagen). […] Membranes were blocked with 5% (wt/vol) nonfat dry milk in PBS-T (PBS, 0.1% (vol/vol) Tween 20) for 2 h at room temperature and subsequently incubated with the desired primary antibody (diluted in PBS containing 5% non-fat milk and 0.1% Tween 20) overnight at 4 °C with gentle agitation. The membrane was incubated with horseradish peroxidase-coupled secondary antibody for 1 h at room temperature. Chemiluminescence detection was performed by incubating the membranes with SuperSignal-Dura substrate (Pierce Biotechnology, Rockford, U.S.A) followed by analysis on a CCD cooling camera (Fuji LAS-1000plus). The chemiluminescence was quantified using the AIDA, two-dimensional densitometry software (Raytest lsotopenmeb, Straubenhardt, Germany).

With `O=c1ccn([C@@H]2O[C@H](COP(=O)(O)OP(=O)(O)OP(=O)(O)O)[C@@H](O)[C@H]2O)c(=O)[nH]1` [UTP, uridine 5'-triphosphate], the “maximal potassium and sodium current amplitudes, treated vs untreated” value in the test on hmNPCs [1] is “no significant difference”. In the test with hmNPCs [2] (1 µM during 2 weeks of expansion, then 100 µM during 1 week of differentiation), the TH expression is given as 529 ± 20%. In addition, the “expression of TH” value in the test on hmNPCs [2] (100 µM, one week of differentiation) was “increased”. Moreover, the activity at 100 µM with hmNPCs [2] (Homo sapiens, 100 µM, long-term treatment, read-out: TH protein expression in Western blots as compared to controls) came to 319 ± 5%.
